In patent publication US8394801B2, “Quinoxaline derivatives and their use for treating benign and malignant tumour disorders” (Aeterna Zentaris GmbH, priority 2009, dated 2013):

Assays:
PC-3 = assay: Proliferation assay (Alamar Blue / XTT), PC-3; type: cell-based; conditions: Homo sapiens, cell line PC3 (prostate)
A549 = assay: Proliferation assay (Alamar Blue / XTT), A549; type: cell-based; conditions: Homo sapiens; cell line A549 (lung)
U87MG = assay: Proliferation assay (Alamar Blue / XTT), U87MG; type: cell-based; conditions: Homo sapiens, U-87 MG; cell line U87MG (glioma)
HCT116 = assay: Proliferation assay (Alamar Blue / XTT), HCT116; type: cell-based; conditions: Homo sapiens; cell line HCT-116 (colon)
MDA MB468 = assay: Proliferation assay (Alamar Blue / XTT), MDA MB468; type: cell-based; conditions: Homo sapiens, MDA-MB-468; cell line MDA-MB468 (breast)
NCI-H460 = assay: Proliferation assay (Alamar Blue / XTT), NCI-H460; type: cell-based; conditions: Homo sapiens; cell line NCI-H460 (lung)
SKOV-3 = assay: Proliferation assay (Alamar Blue / XTT), SKOV-3; type: cell-based; conditions: Homo sapiens, SK-OV-3; cell line SKOV-3 (ovaries)

| SMILES | EC50 (PC-3) | melting point | EC50 (A549) | EC50 (U87MG) | EC50 (HCT116) | EC50 (MDA MB468) | EC50 (NCI-H460) | EC50 (SKOV-3) |
| --- | --- | --- | --- | --- | --- | --- | --- | --- |
| Oc1c(Cl)cc(-c2ccc3ncc(NC(=S)NCc4ccccc4)nc3c2)cc1Cl [Compound 94, 1-Benzyl-3-[7-(3,5-dichloro-4-hydroxy-phenyl)-quinoxalin-2-yl]-thiourea] | 821 nM | 275 to 277 °C | 891 nM | 2080 nM | 586 nM | 169 nM |  |  |
| Oc1c(Cl)cc(-c2ccc3ncc(NC(=S)NCCCc4ccccc4)nc3c2)cc1Cl [Compound 96, 1-[7-(3,5-Dichloro-4-hydroxy-phenyl)-quinoxalin-2-yl]-3-(3-phenyl-propyl)-thiourea] | 1650 nM | 248 to 250 °C | 1820 nM | 2350 nM | 1540 nM | 1040 nM |  |  |
| Cc1cc(-c2ccc3ncc(NC(=O)NCC(C)(C)C)nc3c2)cc(C)c1O [Compound 67, 1-(2,2-Dimethyl-propyl)-3-[7-(4-hydroxy-3,5-dimethyl-phenyl)-quinoxalin-2-yl]-urea] | 188 nM | 275 to 276 °C | 352 nM | 222 nM | 325 nM | 384 nM |  |  |
| CCCCCNC(=S)Nc1cnc2ccc(-c3cc(Cl)c(O)c(Cl)c3)cc2n1 [Compound 90, 1-[7-(3,5-Dichloro-4-hydroxy-phenyl)-quinoxalin-2-yl]-3-pentyl-thiourea] | 556 nM | 237 to 238 °C | 1090 nM | 1230 nM | 1010 nM | 318 nM |  |  |
| O=C(Nc1cnc2ccc(-c3cc(Cl)c(O)c(Cl)c3)cc2n1)NC1CCCCCC1 [Compound 78, 1-Cycloheptyl-3-[7-(3,5-dichloro-4-hydroxy-phenyl)-quinoxalin-2-yl]-urea] | 306 nM | 283 to 286 °C | 1180 nM | 3110 nM | 809 nM | 436 nM |  |  |
| Oc1c(Cl)cc(-c2ccc3ncc(NC(=S)NC4CCCCCCC4)nc3c2)cc1Cl [Compound 93, 1-Cyclooctyl-3-[7-(3,5-dichloro-4-hydroxy-phenyl)-quinoxalin-2-yl]-thiourea] | 334 nM | 288 to 289 °C | 1030 nM | 1800 nM | 409 nM | 193 nM |  |  |
| Oc1c(Cl)cc(-c2ccc3ncc(NC(=S)NC4CCC4)nc3c2)cc1Cl [Compound 80, 1-Cyclobutyl-3-[7-(3,5-dichloro-4-hydroxy-phenyl)-quinoxalin-2-yl]-thiourea] | 1190 nM | 277 to 280 °C | 2040 nM | 2000 nM | 1710 nM | 672 nM |  |  |
| CCCNC(=O)Nc1cnc2ccc(-c3cc(C)c(O)c(C)c3)cc2n1 [Compound 36, 1-[7-(4-Hydroxy-3,5-dimethylphenyl)quinoxalin-2-yl]-3-propylurea] | 9 nM | 276 to 277 °C | 34 nM | 111 nM | 43 nM | 43 nM | 64 nM | 42 nM |
| O=C(NCCc1ccccc1)Nc1cnc2ccc(-c3cc(Cl)c(O)c(Cl)c3)cc2n1 [Compound 85, 1-[7-(3,5-Dichloro-4-hydroxy-phenyl)-quinoxalin-2-yl]-3-phenethyl-urea] | 1260 nM |  | 1840 nM | 495 nM | 1300 nM | 1610 nM |  |  |
| CCCCNC(=O)Nc1cnc2ccc(-c3cc(Cl)c(O)c(Cl)c3)cc2n1 [Compound 72, 1-Butyl-3-[7-(3,5-dichloro-4-hydroxy-phenyl)-quinoxalin-2-yl]-urea] | 880 nM | 297 to 298 °C | 3260 nM | 3190 nM | 1820 nM | 779 nM |  |  |
| CCCCNC(=S)Nc1cnc2ccc(-c3cc(Cl)c(O)c(Cl)c3)cc2n1 [Compound 87, 1-Butyl-3-[7-(3,5-dichloro-4-hydroxy-phenyl)-quinoxalin-2-yl]thiourea] | 790 nM | 226 to 227 °C | 1530 nM | 2490 nM | 1090 nM | 464 nM |  |  |
| CC(C)NC(=O)Nc1cnc2ccc(-c3cnn(C)c3)cc2n1 [Compound 70, 1-Isopropyl-3-[7-(1-methyl-1H-pyrazol-4-yl)-quinoxalin-2-yl]-urea] | 601 nM | 260 to 263 °C | 1320 nM | 801 nM | 564 nM | 991 nM |  |  |
| CC(C)NC(=O)Nc1cnc2ccc(-c3ccc(N)cc3)cc2n1 [Compound 68, 1-[7-(4-Amino-phenyl)-quinoxalin-2-yl]-3-isopropyl-urea] | 453 nM | > 300 °C | 626 nM | 529 nM | 474 nM | 1670 nM |  |  |
| Cc1cc(-c2ccc3ncc(NC(=O)NC4CCCCC4)nc3c2)cc(C)c1O [Compound 12, 1-Cyclohexyl-3-[7-(4-hydroxy-3,5-dimethylphenyl)quinoxalin-2-yl]urea] | 51 nM |  | 76 nM | 77 nM | 42 nM | 125 nM | 85 nM | 67 nM |
| Oc1c(Cl)cc(-c2ccc3ncc(NC(=S)NCCc4ccccc4)nc3c2)cc1Cl [Compound 97, 1-[7-(3,5-Dichloro-4-hydroxy-phenyl)-quinoxalin-2-yl]-3-phenethyl-thiourea] | 538 nM | 282 to 285 °C | 1510 nM | 1820 nM | 700 nM | 568 nM |  |  |
| Cc1cc(-c2ccc3ncc(NC(=O)Nc4cccs4)nc3c2)cc(C)c1O [Compound 15, 1-[7-(4-Hydroxy-3,5-dimethylphenyl)quinoxalin-2-yl]-3-thiophen-2-ylurea] | 309 nM |  | 836 nM | 1340 nM | 475 nM | 835 nM | 714 nM | 1810 nM |
| CCNC(=O)Nc1cnc2ccc(-c3cc(Cl)c(O)c(Cl)c3)cc2n1 [Compound 74, 1-[7-(3,5-Dichloro-4-hydroxy-phenyl)-quinoxalin-2-yl]-3-ethyl-urea] | 2200 nM | 295 to 296 °C | 3910 nM | 10000 nM | 3090 nM | 2100 nM |  |  |
| CCCNC(=O)Nc1cnc2ccc(-c3cc(Cl)c(O)c(Cl)c3)cc2n1 [Compound 73, 1-[7-(3,5-Dichloro-4-hydroxy-phenyl)-quinoxalin-2-yl]-3-propyl-urea] | 1180 nM | 295 to 296 °C | 3360 nM | 4140 nM | 1560 nM | 814 nM |  |  |
| C=CCNC(=O)Nc1cnc2ccc(-c3cc(C)c(O)c(C)c3)cc2n1 [Compound 41, 1-Allyl-3-[7-(4-hydroxy-3,5-dimethylphenyl)quinoxalin-2-yl]urea] | 76 nM |  | 217 nM | 105 nM | 91 nM | 131 nM | 218 nM |  |
| Oc1c(Cl)cc(-c2ccc3ncc(NC(=S)NC4CC4)nc3c2)cc1Cl [Compound 83, 1-Cyclopropyl-3-[7-(3,5-dichloro-4-hydroxy-phenyl)-quinoxalin-2-yl]-thiourea] | 955 nM | 260 to 262 °C | 2290 nM | 1970 nM | 2090 nM | 1050 nM |  |  |
| O=C(Nc1cnc2ccc(-c3cc(Cl)c(O)c(Cl)c3)cc2n1)NC1CCCCCCC1 [Compound 79, 1-Cyclooctyl-3-[7-(3,5-dichloro-4-hydroxy-phenyl)-quinoxalin-2-yl]-urea] | 300 nM | 258 to 260 °C | 1030 nM | 1160 nM | 503 nM | 253 nM |  |  |
